Test results from patent publication US11446287B2, “Compounds and methods for EP300 or CBP modulation and indications therefor” (Opna Immuno-Oncology SA, priority 2019, dated 2022).

Target: T1, Recombinant human EP300 containing the bromodomain (EP300-BD (1040-1161)) (Homo sapiens, UniProt Q09472)
T1 construct: Recombinant human EP300 bromodomain (EP300-BD (1040-1161)); made in house; host or cells: E. coli BL21-CodonPlus (DE3), modified pET vector
T1 sequence (Q09472 1040-1161): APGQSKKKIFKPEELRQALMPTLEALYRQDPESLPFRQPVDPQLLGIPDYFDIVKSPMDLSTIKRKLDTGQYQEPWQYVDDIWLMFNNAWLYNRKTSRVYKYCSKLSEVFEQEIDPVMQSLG
Experiment: EP300 Alphascreen binding assay
Outline: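 Displacement of a biotinylated acetyl-K56 histone H3 peptide from the N-His bromodomain construct (1040-1161) measured by AlphaScreen proximity, beads at 7.5 μg/ml final, read 60 min after addition. Protein, peptide and compound first incubated 1 h at room temperature, pH 7.5 HEPES buffer; IC50 by four-parameter logistic fit.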

SMILES | IC50 [nM]
CCOc1cc(C(=O)O)c(F)c(OCC)c1-c1cn(-c2ccc(F)cc2F)c2ncc(-c3c(C)noc3C)cc12 [P-0297, 4-(1-(2,4-difluorophenyl)-5-(3,5-dimethylisoxazol-4-yl)-1H-pyrrolo[2,3-b]pyridin-3-yl)-3,5-diethoxy-2-fluorobenzoic acid] | 0.1 to 1000
Cc1noc(C)c1-c1cnc2c(c1)c(-c1ccc(C(=O)O)cc1OCC(F)F)cn2-c1ccncc1Cl [P-0306, 4-(1-(3-chloropyridin-4-yl)-5-(3,5-dimethylisoxazol-4-yl)-1H-pyrrolo[2,3-b]pyridin-3-yl)-3-(2,2-difluoroethoxy)benzoic acid] | 0.1 to 1000
C=C(C)c1ccccc1-n1cc(-c2ccc(C(=O)O)cc2OC(F)(F)F)c2cc(-c3c(C)noc3C)cnc21 [P-0312, 4-(5-(3,5-dimethylisoxazol-4-yl)-1-(2-(prop-1-en-2-yl)phenyl)-1H-pyrrolo[2,3-b]pyridin-3-yl)-3-(trifluoromethoxy)benzoic acid] | 0.1 to 1000
CCOc1cc(C(=O)O)cc(OCC)c1-n1cc(-c2cnn(C(F)F)c2)c2ncc(-c3c(C)noc3C)cc21 [P-0261, 4-(3-(1-(difluoromethyl)-1H-pyrazol-4-yl)-6-(3,5-dimethylisoxazol-4-yl)-1H-pyrrolo[3,2-b]pyridin-1-yl)-3,5-diethoxybenzoic acid] | 0.1 to 1000
Cc1noc(C)c1-c1cnc2c(-c3ccccc3)cn(-c3c(OCC(F)(F)F)cc(C(=O)O)cc3OCC(F)(F)F)c2c1 [P-0298, 4-(6-(3,5-dimethylisoxazol-4-yl)-3-phenyl-1H-pyrrolo[3,2-b]pyridin-1-yl)-3,5-bis(2,2,2-trifluoroethoxy)benzoic acid] | 0.1 to 1000
Cc1noc(C)c1-c1cnc2c(c1)c(-c1ccc(C(=O)O)cc1OC(F)(F)F)cn2-c1cnc(N2CCC2)nc1 [P-0281, 4-(1-(2-(azetidin-1-yl)pyrimidin-5-yl)-5-(3,5-dimethylisoxazol-4-yl)-1H-pyrrolo[2,3-b]pyridin-3-yl)-3-(trifluoromethoxy)benzoic acid] | 0.1 to 1000
CCOc1cc(C(=O)O)cc(OCC)c1-n1cc(-c2cnn(CS(C)(=O)=O)c2)c2ncc(-c3c(C)noc3C)cc21 [P-0258, 4-(6-(3,5-dimethylisoxazol-4-yl)-3-(1-((methylsulfonyl)methyl)-1H-pyrazol-4-yl)-1H-pyrrolo[3,2-b]pyridin-1-yl)-3,5-diethoxybenzoic acid] | 0.1 to 1000
Cc1nnn(C)c1-c1cnc2c(c1)c(-c1ccc(C(=O)O)cc1OC(F)(F)F)cn2CC/C=C/C1CC1 [P-0305, (E)-4-(1-(4-cyclopropylbut-3-en-1-yl)-5-(1,4-dimethyl-1H-1,2,3-triazol-5-yl)-1H-pyrrolo[2,3-b]pyridin-3-yl)-3-(trifluoromethoxy)benzoic acid] | 0.1 to 1000
COc1cc(C(=O)O)cc(C)c1-c1cn(-c2ccccc2)c2ncc(-c3c(C)noc3C)cc12 [P-0255, 4-(5-(3,5-dimethylisoxazol-4-yl)-1-phenyl-1H-pyrrolo[2,3-b]pyridin-3-yl)-3-methoxy-5-methylbenzoic acid] | 0.1 to 1000
Cc1noc(C)c1-c1cnc2c(c1)c(-c1ccc(C(N)=O)cc1)cn2C(c1ccccn1)C1CCCC1 (stereo not shown) [P-0020, 4-(1-(cyclopentyl(pyridin-2-yl)methyl)-5-(3,5-dimethylisoxazol-4-yl)-1H-pyrrolo[2,3-b]pyridin-3-yl)benzamide] | 1000 to 8000
COc1ccc(-n2cc(-c3ccc(C(=O)O)cc3OC(F)(F)F)c3cc(-c4c(C)noc4C)cnc32)c(F)c1 [P-0311, 4-(5-(3,5-dimethylisoxazol-4-yl)-1-(2-fluoro-4-methoxyphenyl)-1H-pyrrolo[2,3-b]pyridin-3-yl)-3-(trifluoromethoxy)benzoic acid] | 0.1 to 1000
CCOc1cc(C(=O)O)cc(OCC)c1-n1cc(-c2cnn(CC(=O)N(C)C)c2)c2ncc(-c3c(C)noc3C)cc21 [P-0267, 4-(3-(1-(2-(dimethylamino)-2-oxoethyl)-1H-pyrazol-4-yl)-6-(3,5-dimethylisoxazol-4-yl)-1H-pyrrolo[3,2-b]pyridin-1-yl)-3,5-diethoxybenzoic acid] | 0.1 to 1000
CCCn1nc(C(=O)O)c(NCC)c1-c1cn(-c2ccc(F)cc2F)c2ncc(-c3c(C)noc3C)cc12 [P-0304, 5-(1-(2,4-difluorophenyl)-5-(3,5-dimethylisoxazol-4-yl)-1H-pyrrolo[2,3-b]pyridin-3-yl)-4-(ethylamino)-1-propyl-1H-pyrazole-3-carboxylic acid] | 0.1 to 1000
Cc1noc(C)c1-c1cnc2c(c1)c(-c1ccc(C(=O)O)cc1OC(C)C)cn2-c1ccccc1 [P-0275, 4-(5-(3,5-dimethylisoxazol-4-yl)-1-phenyl-1H-pyrrolo[2,3-b]pyridin-3-yl)-3-isopropoxybenzoic acid] | 0.1 to 1000
Cc1noc(C)c1-c1cnc2c(c1)c(-c1ccc(C(=O)O)cc1OC(C)C)cn2-c1cnc(N2CCC2)nc1 [P-0300, 4-(1-(2-(azetidin-1-yl)pyrimidin-5-yl)-5-(3,5-dimethylisoxazol-4-yl)-1H-pyrrolo[2,3-b]pyridin-3-yl)-3-isopropoxybenzoic acid] | 0.1 to 1000
Cc1noc(C)c1-c1cnc2c(c1)c(-c1ccc(C(=O)O)cc1OC(F)(F)F)cn2-c1ccccc1Cl [P-0307, 4-(1-(2-chlorophenyl)-5-(3,5-dimethylisoxazol-4-yl)-1H-pyrrolo[2,3-b]pyridin-3-yl)-3-(trifluoromethoxy)benzoic acid] | 0.1 to 1000
Cc1noc(C)c1-c1cnc2c(c1)c(-c1ccc(C(=O)O)cc1OC(F)(F)F)cn2-c1ccc(F)cc1 [P-0279, 4-(5-(3,5-dimethylisoxazol-4-yl)-1-(4-fluorophenyl)-1H-pyrrolo[2,3-b]pyridin-3-yl)-3-(trifluoromethoxy)benzoic acid] | 0.1 to 1000
Cc1noc(C)c1-c1cnc2c(-c3ccc(C(=O)O)cc3C#N)c(C(F)(F)F)n([C@@H](C)c3ccccn3)c2c1 [P-0256, (S)-3-cyano-4-(6-(3,5-dimethylisoxazol-4-yl)-1-(1-(pyridin-2-yl)ethyl)-2-(trifluoromethyl)-1H-pyrrolo[3,2-b]pyridin-3-yl)benzoic acid] | 0.1 to 1000
Cc1cc(-c2c(C(F)(F)F)n([C@@H](C)c3ccccn3)c3cc(-c4c(C)noc4C)cnc23)ccc1C(=O)O [P-0243, (S)-4-(6-(3,5-dimethylisoxazol-4-yl)-1-(1-(pyridin-2-yl)ethyl)-2-(trifluoromethyl)-1H-pyrrolo[3,2-b]pyridin-3-yl)-2-methylbenzoic acid] | 1000 to 8000
Cc1noc(C)c1-c1cnc2c(c1)c(-c1ccc(C(=O)O)c(F)c1)cn2C(c1ccccn1)C1CCCC1 (stereo not shown) [P-0025, 4-(1-(cyclopentyl(pyridin-2-yl)methyl)-5-(3,5-dimethylisoxazol-4-yl)-1H-pyrrolo[2,3-b]pyridin-3-yl)-2-fluorobenzoic acid] | 0.1 to 1000
CCOc1cc(O)c(C(=O)O)cc1-c1cn(-c2ccc(F)cc2F)c2ncc(-c3c(C)noc3C)cc12 [P-0249, 5-(1-(2,4-difluorophenyl)-5-(3,5-dimethylisoxazol-4-yl)-1H-pyrrolo[2,3-b]pyridin-3-yl)-4-ethoxy-2-hydroxybenzoic acid] | 0.1 to 1000
CCOc1cc(C(=O)O)cc(OCC)c1-n1cc(-c2cnn(CC(C)(C)O)c2)c2ncc(-c3c(C)noc3C)cc21 [P-0260, 4-(6-(3,5-dimethylisoxazol-4-yl)-3-(1-(2-hydroxy-2-methylpropyl)-1H-pyrazol-4-yl)-1H-pyrrolo[3,2-b]pyridin-1-yl)-3,5-diethoxybenzoic acid] | 0.1 to 1000
